Laboratory results: PubChem BioAssay (NCI)
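Grown in 96-well plates, cells were treated for 48 hours with each compound at five concentrations. Insufficient inhibition: endpoint recorded as highest concentration tested. GI50: concentration for 50% inhibition of growth. TGI: concentration producing complete growth inhibition.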

Key:
Test in all cases: DTP human tumour cell line panel, 48 h
[1] = system: TK-10 renal
[2] = system: SW-620 colon
[3] = system: SF-295 CNS
[4] = system: HOP-62 NSCLC
[5] = system: OVCAR-5 ovarian
[6] = system: HS 578T breast
[7] = system: SK-MEL-2 melanoma
[8] = system: HT29 colon
[9] = system: KM12 colon
[10] = system: SF-268 CNS
[11] = system: SK-MEL-5 melanoma
[12] = system: MOLT-4 leukemia
[13] = system: MALME-3M melanoma
[14] = system: NCI-H23 lung
[15] = system: CAKI-1 renal
[16] = system: MDA-MB-231 breast
[17] = system: EKVX NSCLC
[18] = system: SN12C renal
[19] = system: K-562 leukemia
[20] = system: UACC-62 melanoma
[21] = system: 786-0 renal
[22] = system: A549 NSCLC
[23] = system: UACC-257 melanoma
[24] = system: U251 CNS
[25] = system: OVCAR-4 ovarian
[26] = system: IGROV1 ovarian
[27] = system: SR leukemia
[28] = system: BT-549 breast
[29] = system: OVCAR-3 ovarian
[30] = system: NCI-H226 lung
[31] = system: CCRF-CEM leukemia
[32] = system: RPMI-8226 leukemia
[33] = system: SNB-19 CNS
[34] = system: HOP-92 NSCLC
[35] = system: PC-3 prostate
[36] = system: RXF 393 renal
[37] = system: COLO 205 colon
[38] = system: HCT-116 colon
[39] = system: HCT-15 colon
[40] = system: SF-539 CNS
[41] = system: NCI-H522 lung
[42] = system: OVCAR-8 ovarian
[43] = system: NCI-H460 lung
[44] = system: HL-60(TB) leukemia
[45] = system: T-47D breast
[46] = system: A498 renal
[47] = system: MCF7 breast
[48] = system: MDA-MB-435
[49] = system: LOX IMVI melanoma
[50] = system: M14 melanoma
[51] = system: ACHN renal
[52] = system: SK-MEL-28 melanoma
[53] = system: UO-31 renal
[54] = system: SK-OV-3 ovarian
[55] = system: HCC-2998 colon
[56] = system: DU-145 prostate
[57] = system: NCI/ADR-RES ovarian

COc1ccc2[nH]cc(-c3nc(N)nnc3-c3cn(C)c4ccc(Br)cc34)c2c1
GI50 [1]: 6.45 µM | TGI [1]: 60.2 µM | GI50 [2]: 3.85 µM | TGI [2]: 22.4 µM | GI50 [3]: 2.8 µM | TGI [3]: 13 µM | GI50 [4]: 4.52 µM | TGI [4]: 26.2 µM | GI50 [5]: 4.61 µM | TGI [5]: 30.6 µM | GI50 [6]: 2.3 µM | TGI [6]: 8.63 µM | GI50 [7]: 4.02 µM | TGI [7]: 20.8 µM | GI50 [8]: 2.69 µM | TGI [8]: 12.1 µM | GI50 [9]: 2.86 µM | TGI [9]: 18.7 µM | GI50 [10]: 5.87 µM | TGI [10]: 36.1 µM | GI50 [11]: 2.58 µM | TGI [11]: 8.5 µM | GI50 [12]: 3.73 µM | TGI [12]: > 100 µM | GI50 [13]: 3.36 µM | TGI [13]: 19.8 µM | GI50 [14]: 2.81 µM | TGI [14]: 13 µM | GI50 [15]: 1.29 µM | TGI [15]: 19.5 µM | GI50 [16]: 4.48 µM | TGI [16]: 28.3 µM | GI50 [17]: 3.95 µM | TGI [17]: 30.2 µM | GI50 [18]: 4.5 µM | TGI [18]: 22.8 µM | GI50 [19]: 1.07 µM | TGI [19]: > 100 µM | GI50 [20]: 1.86 µM | TGI [20]: 11.5 µM | GI50 [21]: 4.23 µM | TGI [21]: 25.4 µM | GI50 [22]: 5.59 µM | TGI [22]: 90.3 µM | GI50 [23]: 12.4 µM | TGI [23]: 46.2 µM | GI50 [24]: 3.82 µM | TGI [24]: 26.4 µM | GI50 [25]: 4.61 µM | TGI [25]: 84 µM | GI50 [26]: 2.89 µM | TGI [26]: 17.1 µM | GI50 [27]: 1.19 µM | TGI [27]: > 100 µM | GI50 [28]: 4.19 µM | TGI [28]: 24.8 µM | GI50 [29]: 2.9 µM | TGI [29]: 10.6 µM | GI50 [30]: 4.29 µM | TGI [30]: 39.8 µM | GI50 [31]: 3.57 µM | TGI [31]: > 100 µM | GI50 [32]: 3.51 µM | TGI [32]: > 100 µM | GI50 [33]: 4.09 µM | TGI [33]: 20.1 µM | GI50 [34]: 2.58 µM | TGI [34]: 17.3 µM | GI50 [35]: 2.62 µM | TGI [35]: 22.7 µM | GI50 [36]: 1.8 µM | TGI [36]: 4.68 µM | GI50 [37]: 3.48 µM | TGI [37]: 12.6 µM | GI50 [38]: 3.7 µM | TGI [38]: 23.7 µM | GI50 [39]: 2.86 µM | TGI [39]: 22 µM | GI50 [40]: 3.11 µM | TGI [40]: 12 µM | GI50 [41]: 2.4 µM | TGI [41]: 15.4 µM | GI50 [42]: 4.37 µM | TGI [42]: > 100 µM | GI50 [43]: 3.03 µM | TGI [43]: 15.6 µM | GI50 [44]: 3.41 µM | TGI [44]: > 100 µM | GI50 [45]: 3.31 µM | TGI [45]: 30.1 µM | GI50 [46]: 2.11 µM | TGI [46]: 6.09 µM | GI50 [47]: 1.22 µM | TGI [47]: 13.5 µM | GI50 [48]: 0.414 µM | TGI [48]: 1.76 µM | GI50 [49]: 3.89 µM | TGI [49]: 19.9 µM | GI50 [50]: 2.66 µM | TGI [50]: 12.4 µM | GI50 [51]: 4.94 µM | TGI [51]: 32 µM | GI50 [52]: 6.81 µM | TGI [52]: 22.2 µM | GI50 [53]: 2.31 µM | TGI [53]: 17.5 µM | GI50 [54]: 4.29 µM | TGI [54]: 32.2 µM | GI50 [55]: 6.26 µM | TGI [55]: 23.7 µM | GI50 [56]: 4.23 µM | TGI [56]: 21.8 µM | GI50 [57]: 4.34 µM | TGI [57]: 50.1 µM
